In patent US20240425529A1, “BORIC ACID DERIVATIVE” (SHOUYAO HOLDINGS (BEIJING) CO., LTD., priority 2021, published 2024):

Legend:
β5 = molecular target: T1, β5 (Homo sapiens, UniProt P28074); experiment: Enzymatic inhibitory activity on β5 (HEK-293 cell lysate, Ac-WLA-AMC substrate); assay type: biochemical; conditions: 1 hour pre-incubation
T1 construct: using HEK-293 cell lysate as the enzyme source of D5; endogenous in cells; host or cells: HEK-293 (human embryonic kidney cells)
Method in brief: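 HEK-293 lysate (25 ng/μl final) preincubated 1 h at 23 °C with compound (9-point, 5-fold dilutions) in 20 mM Tris pH 8.0, 0.5 mM EDTA. Ac-WLA-AMC then added at 20 μM final for 2 h at 23 °C in the dark. AMC fluorescence read at Ex 345/Em 445 nm; IC50 from curve fit.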

LMP7 = molecular target: T2, LMP7 (Homo sapiens, UniProt P28062); experiment: Cytological inhibitory activity on LMP7 in MOLT-4 cells; assay type: cell-based; conditions: incubation for 2 hours with compound, read-out: Cytological activity data LMP7 Activity (MOLT-4Cell)
T2 construct: using MOLT-4 cell lysate as the enzyme source of LMP7; endogenous in cells; host or cells: MOLT-4 (human acute lymphoblastic leukemia cells)
Method in brief: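 MOLT-4 cells pre-incubated 2 h with compound (8 concentrations, 5-fold dilution series from 2 mM DMSO stock, 5% FBS), washed and lysed. Lysate (20 ng/μl, 2× stock) reacted with Ac-ANW-AMC (100 μM, 2× stock) in 20 mM Tris pH 8.0, 0.5 mM EDTA, 1 h, 23 °C. Fluorescence at 345/445 nm; IC50 fitted.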

| IC50 (β5) [nM] | IC50 (LMP7) [nM] | SMILES |
| --- | --- | --- |
| 44.6 | 1.58 | O=C(Nc1nc2ccccc2s1)C(=O)N[C@@H](Cc1coc2ccccc12)B(O)O [Ex. 27, (R)-(2-(benzofuran-3-yl)-1-(2-oxo-2-((benzo[d]thiazol-2-yl)amino)acetamido)ethyl)boronic acid] |
| 283 | 3.77 | O=C(Nc1ccccn1)C(=O)N[C@@H](Cc1coc2ccccc12)B(O)O [Ex. 12] |
| 62.9 | 1.72 | Cc1cnc(NC(=O)C(=O)N[C@@H](Cc2coc3ccccc23)B(O)O)s1 [Ex. 32, (R)-(2-(benzofuran-3-yl)-1-(2-oxo-2-((5-methylthiazol-2-yl)amino)acetamido)ethyl)boronic acid] |

Continued, molecule first:

| SMILES | IC50 (β5) [nM] | IC50 (LMP7) [nM] |
| --- | --- | --- |
| O=C(Nc1cnccn1)C(=O)N[C@@H](Cc1coc2ccccc12)B(O)O [Ex. 9, (R)-(2-(benzofuran-3-yl)-1-(2-oxo-2-(pyrazin-2-ylamino)acetamido)ethyl) boronic acid] | 97.5 | 4.82 |
| O=C1COB([C@H](Cc2coc3ccccc23)NC(=O)C(=O)Nc2cnccn2)O1 [Ex. 73] | 20.7 | 1.15 |
| CC1CC(C)(C)OB([C@H](Cc2coc3ccccc23)NC(=O)C(=O)Nc2cnccn2)O1 (some centres unmarked) [Ex. 67] | 38.2 | 0.79 |
| O=C(Nc1cc(Cl)ccn1)C(=O)N[C@@H](Cc1coc2ccccc12)B(O)O [Ex. 49, (R)-(2-(benzofuran-3-yl)-1-(2-oxo-2-((4-chloropyridin-2-yl)amino)acetamido)ethyl)boronic acid] | 61.1 | 1.9 |
